US20250057928A1, “VACCINE COMPOSITION FOR INDUCING ANTI-IL-23 ANTIBODY” (OSAKA UNIVERSITY, priority 2021, published 2025)
Where no end group is shown, it is not given here.

How the values were obtained:
[1] = test system: epitope peptide; test: Antibody titer (GMT) of serum of mice administered AJP001 conjugated peptide, ELISA; format: in vivo, mouse; conditions: BALB/c mice, 0.5 mg/body intradermal with equal amount of 2% Alhydrogel, 3 times at two-week intervals; serum 6 weeks after initial administration; titer to each epitope sequence
Method: AJP001 conjugated peptide having one of the B cell epitope sequences of SEQ ID NOs: 1-5 was dissolved in physiological saline and intradermally administered twice to BALB/c mice (female, 6-week-old, N=5-6) at 0.5 mg/body at 2-week intervals. Blood was collected before administration and 5 weeks after the initial administration, and the antibody titer against each AJP001 conjugated peptide and the binding ability to recombinant mouse IL-23 protein (rmIL-23) were measured by the ELISA method. Specifically, a 96-well plate immobilized with an epitope peptide dissolved at 10 μg/mL in carbonate buffer was blocked with 5% skim milk/PBS, and then serum serially diluted with 5% skim milk/PBS was added, and the mixture was left standing at 4° C. overnight. After washing the wells with PBS-T, HRP-labeled anti-mouse IgG antibody (GE Healthcare) diluted with 5% skim milk/PBS was added and the mixture was shaken at room temperature for 3 hr. After washing the wells with PBS-T, TMB solution (SIGMA) was added, the wells were allowed to stand for 30 min in the dark, the reaction was stopped by adding 0.5M H2SO4, and the absorbance at 450 nm was measured using a plate reader. The serum dilution rate that gave 1/2 (OD=1.75) of the maximum absorbance was defined as the antibody titer, and the geometric mean titer: GMT was calculated from the individual values. Binding to IL-23 protein was measured by the ELISA method in the same manner as the antibody titer, using rmIL-23 (Antibodies-online GmbH) as the solid-phased antigen and goat serum for blocking.
AJP001 conjugated peptide (SEQ ID NO: 2) was dissolved in physiological saline and intradermally administered to BALB/c mice (female, 6-week-old, N=6) at 1 mg/body 3 times at two-week intervals, and blood was collected every 2 weeks until 8 weeks. The antibody titer (GMT) of all the collected sera and the binding ability to rmIL-23 of the serum at the time point of 6 weeks were measured by the ELISA method (same method as in Example 1). The antibody titer and the binding of the induced antibody to rmIL-23 at each time point are shown in FIGS. 2 (a) and (b), respectively.
AJP001 conjugated peptide (SEQ ID NOs: 6-37) was dissolved in physiological saline, mixed with an equal amount of 2% Alhydrogel (invivogen), and this was intradermally administered to BALB/c mice (female, 6-week-old, N=5-6) at 0.5 mg/body 3 times at two-week intervals. Blood was collected before administration and at the time point of 6 weeks after initial administration, and the antibody titer (GMT) to each epitope sequence and binding ability to recombinant human IL-23 protein (rhIL-23) (Peprotech) were measured by the ELISA method (same method as in Example 1). The binding to rhIL-23 was evaluated by a binding ratio to normal serum by calculating the ratio of the absorbance of a well added with normal mouse serum to the absorbance of a well added with antiserum derived from a mouse administered with each AJP001 conjugated peptide (SEQ ID NOs: 6-37). In addition, the neutralization activity of mouse antiserum was evaluated using an action on IL-17 production in rhIL-23 stimulated mouse splenocyte as an index. The spleen of normal BALB/c mouse (female, 5-week-old, N=3) was triturated using a syringe barrel and a cell strainer and washed with and suspended in HBSS (−). Erythrocytes were then removed using ACK Buffer (Thermo fisher scientific), and splenocytes were isolated. The splenocytes were prepared to 2.5×10^6 cells/mL with 10% FBS/1% penicillin/streptomycin/4 ng/mL rmIL-2-containing RPMI1640 medium (culture medium), and seeded in a 96 well plate at 100 μl/well. The antiserum (final concentration 15-fold) of the mice administered with each AJP001 conjugated peptide and rhIL-23 (final concentration 10 ng/ml) were added to the culture medium, reacted at 37° C. for 2 hr, added at 100 μL/well to a 96-well plate seeded with splenocytes, and cultured for 3 days in a 37° C./5% CO2 incubator. […]

[2] = test system: recombinant human IL-23 protein (rhIL-23); test: Binding of mouse antiserum to rhIL-23, ELISA; conditions: rhIL-23 ELISA; antiserum of BALB/c mice 6 weeks after initial administration, 0.5 mg/body with Alhydrogel
Method: (§1) AJP001 conjugated peptide (SEQ ID NOs: 6-37) was dissolved in physiological saline, mixed with an equal amount of 2% Alhydrogel (invivogen), and this was intradermally administered to BALB/c mice (female, 6-week-old, N=5-6) at 0.5 mg/body 3 times at two-week intervals. Blood was collected before administration and at the time point of 6 weeks after initial administration, and the antibody titer (GMT) to each epitope sequence and binding ability to recombinant human IL-23 protein (rhIL-23) (Peprotech) were measured by the ELISA method (same method as in Example 1). The binding to rhIL-23 was evaluated by a binding ratio to normal serum by calculating the ratio of the absorbance of a well added with normal mouse serum to the absorbance of a well added with antiserum derived from a mouse administered with each AJP001 conjugated peptide (SEQ ID NOs: 6-37). In addition, the neutralization activity of mouse antiserum was evaluated using an action on IL-17 production in rhIL-23 stimulated mouse splenocyte as an index. The spleen of normal BALB/c mouse (female, 5-week-old, N=3) was triturated using a syringe barrel and a cell strainer and washed with and suspended in HBSS (−). Erythrocytes were then removed using ACK Buffer (Thermo fisher scientific), and splenocytes were isolated. The splenocytes were prepared to 2.5×10^6 cells/mL with 10% FBS/1% penicillin/streptomycin/4 ng/mL rmIL-2-containing RPMI1640 medium (culture medium), and seeded in a 96 well plate at 100 μl/well. The antiserum (final concentration 15-fold) of the mice administered with each AJP001 conjugated peptide and rhIL-23 (final concentration 10 ng/ml) were added to the culture medium, reacted at 37° C. for 2 hr, added at 100 μL/well to a 96-well plate seeded with splenocytes, and cultured for 3 days in a 37° C./5% CO2 incubator. An untreated well and a control well to which normal mouse serum and rhIL-23 were added were provided. IL-17A/F in the culture supernatant was measured using Mouse IL-17A/F ELISA kit (R&D systems), the proportion (%) of IL-17 to normal serum was calculated from the IL-17 concentrations of untreated well (A), control well (B), and well (C) to which antiserum of the mice administered with each AJP001 conjugated peptide was added and according to the following formula, and the neutralization activity was evaluated.
AJP001 conjugated peptide (SEQ ID NO: 6) was dissolved in physiological saline and intradermally administered to BALB/c mice (female, 6-week-old, N=6) at 1 mg/body 3 times at two-week intervals, and blood was collected every 2 weeks until 8 weeks. The antibody titer (GMT) of all the collected sera and the binding ability to rhIL-23 of the serum at 6 weeks were measured by the ELISA method. In FIG. 5, “*” means P<0.05.

[3] = test system: IL-17 production in rhIL-23 stimulated mouse splenocyte; test: Neutralization activity of mouse antiserum: IL-17 production in rhIL-23 stimulated mouse splenocyte; format: cell-based; conditions: antiserum final 15-fold, rhIL-23 10 ng/ml, 3 days culture; IL-17A/F ELISA
Method: as §1
Percentage of IL-17 to normal serum (%)=100×(C−A/B−A)

| binding to IL-23 (binding ratio to normal serum) [2] | Substance | antibody titer (GMT) [1] | neutralization activity (percentage of IL-17 to normal serum (%)) [3] |
| --- | --- | --- | --- |
| 1.07 | 21 (SSSQSWQR; not fully specified (N-terminus)) [compound 21] | 19793 | 6.9% |
| 1.21 | 18 (STSQPWQR; not fully specified (N-terminus)) [compound 18] | 8211 | 0.0% |
| 1.16 | 15 (PWQRPWQR; not fully specified (N-terminus)) [compound 15] | 458 | 10% |
| 1.01 | 9 (SPAQPWQR; not fully specified (N-terminus)) [compound 9] | 4683 | 4.0% |
| 1.11 | 29 (SPKQPWQR; not fully specified (N-terminus)) [compound 29] | 9056 | 63.9% |
| 1.15 | 26 (STSQQWQR; not fully specified (N-terminus)) [compound 26] | 64652 | 0.0% |
| 1.55 | 11 (SPSQAWQR; not fully specified (N-terminus)) [compound 11] | 10441 | 8.1% |
| 1.33 | 19 (SPSQSWQR; not fully specified (N-terminus)) [compound 19] | 18311 | 2.4% |
| 1.66 | 25 (SPSQQWQR; not fully specified (N-terminus)) [compound 25] | 285265 | 2.1% |
| 1.09 | 16 (QWQRPWQR; not fully specified (N-terminus)) [compound 16] | 201 | 3.6% |
| 0.97 | 34 (PSQPWQRK; not fully specified (N-terminus); listed as Homo sapiens) [compound 34] | 362 | 32.5% |
| 1.11 | 13 (SPSQPWAR; not fully specified (N-terminus)) [compound 13] | 3215 | 4.8% |
| 1.23 | 20 (SPSQTWQR; not fully specified (N-terminus)) [compound 20] | 36347 | 5.8% |
| 1.23 | 14 (SPSQPWQA; not fully specified (N-terminus)) [compound 14] | 3331 | 8.0% |
| 1.13 | 28 (SKSQPWQR; not fully specified (N-terminus)) [compound 28] | 4324 | 42.2% |
| 1.2 | 30 (KKSQPWQR; not fully specified (N-terminus)) [compound 30] | 6917 | 68.9% |
| 1.03 | 10 (SPSAPWQR; not fully specified (N-terminus)) [compound 10] | 19795 | 0.0% |
| 1.05 | 37 (QPWQRGGGGSQPWQR; not fully specified (N-terminus)) [compound 37] | 6459 | 63.9% |
| 1.40 | 7 (APSQPWQR; not fully specified (N-terminus)) [compound 7] | 5417 | 4.2% |
| 1.00 | 33 (QPWQR; not fully specified (N-terminus); listed as Homo sapiens) [compound 33] | 16458 | 72.6% |
| 1.10 | 36 (QPWQRSQPWQR; not fully specified (N-terminus)) [compound 36] | 8202 | 70.3% |
| 1.12 | 12 (SPSQPAQR; not fully specified (N-terminus)) [compound 12] | 48594 | 3.1% |
| 1.07 | 27 (KPSQPWQR; not fully specified (N-terminus)) [compound 27] | 12615 | 72.3% |
